{
  "source": "patent US8658350B2",
  "about": "(priority 2008, dated 2014)",
  "data": [
    {"tested_on": "CD8+ T cells", "assay_type": "cell-based, human", "values": [
      {"compound": "CC(C)[C@H](NC(=O)[C@H](C)NC(=O)[C@H](C)NC(=O)[C@H](CCC(N)=O)NC(=O)[C@H](C)NC(=O)[C@H](C)NC(=O)[C@@H](N)[C@@H](C)O)C(=O)N[C@H](C(=O)N[C@@H](CCCNC(=N)N)C(=O)N[C@@H](Cc1ccccc1)C(=O)O)C(C)C", "# SFU": 258},
      {"compound": "CSCC[C@H](NC(=O)[C@H](CCC(=O)O)NC(=O)[C@H](C)N)C(=O)N[C@@H](CCCCN)C(=O)N[C@H](C(=O)N[C@@H](CC(=O)O)C(=O)N[C@@H](C)C(=O)N[C@@H](C)C(=O)N[C@H](C(=O)N[C@@H](CC(C)C)C(=O)N[C@@H](C)C(=O)O)[C@@H](C)O)[C@@H](C)O", "# SFU": 1993},
      {"compound": "CC[C@H](C)[C@H](NC(=O)[C@@H](NC(=O)[C@H](C)N)C(C)C)C(=O)N[C@@H](CC(N)=O)C(=O)N[C@H](C(=O)N[C@H](C(=O)N[C@@H](CS)C(=O)N[C@@H](CC(N)=O)C(=O)N[C@@H](Cc1ccc(O)cc1)C(=O)NCC(=O)N[C@@H](CCC(N)=O)C(=O)O)[C@@H](C)O)[C@@H](C)O", "# SFU": 24},
      {"compound": "CC(C)[C@H](NC(=O)[C@H](Cc1ccccc1)NC(=O)[C@H](CCCNC(=N)N)NC(=O)[C@H](C)NC(=O)[C@H](Cc1c[nH]cn1)NC(=O)[C@H](C)NC(=O)[C@H](C)N)C(=O)N[C@@H](C)C(=O)N[C@@H](C)C(=O)O", "# SFU": 88},
      {"compound": "CSCC[C@H](NC(=O)[C@H](CCC(=O)O)NC(=O)[C@H](C)N)C(=O)N[C@@H](CCCCN)C(=O)N[C@H](C(=O)N[C@@H](CC(=O)O)C(=O)N[C@@H](C)C(=O)N[C@@H](C)C(=O)O)[C@@H](C)O", "# SFU": 2458},
      {"compound": "CC(C)C[C@H](NC(=O)[C@H](Cc1ccc(O)cc1)NC(=O)[C@H](CO)NC(=O)[C@H](CCC(N)=O)NC(=O)[C@H](C)NC(=O)[C@@H](NC(=O)[C@@H]1CCCN1C(=O)[C@H](CO)NC(=O)[C@H](C)N)C(C)C)C(=O)O", "# SFU": 210},
      {"compound": "QTVEDEARRMW", "#SFU/250,000 CD8+ T-cells": 84},
      {"compound": "RADEEQQQAL", "# SFU": 120},
      {"compound": "ELPQWLSANR", "# SFU": "<10"},
      {"compound": "CC[C@H](C)[C@H](NC(=O)[C@H](Cc1c[nH]cn1)NC(=O)[C@H](C)NC(=O)[C@H](CC(=O)O)NC(=O)[C@H](CC(C)C)NC(=O)[C@@H](N)CC(C)C)C(=O)N1CCC[C@H]1C(=O)N[C@@H](CCC(N)=O)C(=O)N[C@@H](CC(C)C)C(=O)O", "# SFU": "<10"},
      {"compound": "CSCC[C@H](NC(=O)[C@@H](N)CCC(=O)O)C(=O)N[C@@H](CCCCN)C(=O)N[C@H](C(=O)N[C@@H](CC(=O)O)C(=O)N[C@@H](C)C(=O)N[C@@H](C)C(=O)N[C@H](C(=O)N[C@@H](CC(C)C)C(=O)O)[C@@H](C)O)[C@@H](C)O", "# SFU": 387},
      {"compound": "CC[C@H](C)[C@H](NC(=O)[C@@H](N)CC(N)=O)C(=O)N[C@@H](CCCNC(=N)N)C(=O)N[C@@H](CCC(N)=O)C(=O)N[C@@H](C)C(=O)NCC(=O)N[C@H](C(=O)N[C@@H](CCC(N)=O)C(=O)N[C@@H](Cc1ccc(O)cc1)C(=O)O)C(C)C", "# SFU": 1715}
    ]}
  ]
}
